Legend:
Format in all cases: cell-based, mouse
[1] = tested on: ARG1, NOS2, CD206 and MHC II mRNA expression in BMDMs; test: qRT-PCR of ARG1, NOS2, CD206, MHC II in BMDMs; settings: BMDMs stimulated with IL-4/IL-13, different concentrations, 12 h
Protocol: We also extended the test to primary murine macrophages derived from bone marrow (BMDMs), which were cultured in vitro with recombinant mouse M-CSF for 6 days. The BMDMs were then stimulated with IL-4/IL-13, leading to their transformation into M2-like pro-tumoral macrophages. This transformation was characterized by an increase in both ARG1 and CD206 expression and a decrease in both NOS2 and MHC II expression. […] Subsequently, we assessed the capacity of compound 12 to inhibit the M2-like polarization of macrophages using CSF-1-differentiated mouse BMDMs. These cells were treated with IL-4 and IL-13 for 48 h, and the expression levels of CD206, an M2-type marker, and CD86, an M1-type marker, were analyzed via flow cytometry. […]
(§1) Figure 2 Compound 12 inhibits the M2-like polarized phenotype of macrophages. […] The expression levels of the markers CD206 and CD86 on induced macrophages were determined by flow cytometry, and the mean fluorescence intensity (MFI) was analyzed with FlowJo (C), or the cells were lysed and immunoblotted to detect the indicated proteins (D). […] Data are represented as means ± SD. ^### p < 0.001 vs. non-stimulated control group, * p < 0.05, ** p < 0.01, *** p < 0.001 vs. stimulated control group. p-values were determined using one-way ANOVA.

[2] = tested on: ARG1 protein expression in BMDMs; test: Western blot of ARG1 protein in macrophages; settings: CSF-1-differentiated BMDMs, IL-4 and IL-13, 48 h, different concentrations
Protocol: We also extended the test to primary murine macrophages derived from bone marrow (BMDMs), which were cultured in vitro with recombinant mouse M-CSF for 6 days. The BMDMs were then stimulated with IL-4/IL-13, leading to their transformation into M2-like pro-tumoral macrophages. This transformation was characterized by an increase in both ARG1 and CD206 expression and a decrease in both NOS2 and MHC II expression. […] Subsequently, we assessed the capacity of compound 12 to inhibit the M2-like polarization of macrophages using CSF-1-differentiated mouse BMDMs. These cells were treated with IL-4 and IL-13 for 48 h, and the expression levels of CD206, an M2-type marker, and CD86, an M1-type marker, were analyzed via flow cytometry.
Total cellular protein was extracted using a 1 × SDS lysis buffer and denatured at 100 °C for 15 min. […]
as §1

[3] = tested on: CD8+ T cell proliferation and activation suppressed by M2-like BMDMs; test: CD8+ T cell suppression assay (BMDM / spleen cell co-culture); settings: BMDMs pretreated 48 h, co-cultured 48 h with anti-CD3/CD28-stimulated spleen cells
Protocol: Pro-tumoral M2-like TAMs are well-known to directly suppress CD8^+ T cell proliferation and activation. When they were co-cultured with autologous spleen cells, as expected, the IL-4/IL-13-induced BMDMs suppressed the proliferation and activation of CD8^+ T cells.
Spleen cells were isolated from C57BL/6 mice, followed by red blood cell (RBC) lysis. BMDMs were induced into M2-like macrophages and treated with different concentrations of compound 1 for 48 h. Then, 2 × 10^5 spleen cells/well were stimulated with αCD3/αCD28 and co-cultured with 2 × 10^4 pro-treated BMDMs in 96-well plates in LCM (RPMI 1640 with […] 2-mercaptoethanol and 10% fetal bovine serum) at 37 °C. After 48 h, the spleen cells were treated with the eBioscience™ Cell Stimulation Cocktail (plus protein transport inhibitors) for 4 h, and cell activation was then determined by the proportion of IFNγ^+ CD8^+ T cells and GRZB^+ CD8^+ T cells in CD8^+ T cells measured using flow cytometry. Cell proliferation was determined by the proportion of Ki67^+ CD8^+ T cells in CD8^+ T cells using flow cytometry.
Figure 3 Compound 12 reverses macrophage-mediated CD8^+ T cell suppression. […] The ratios of Ki67^+ CD8^+ T cells (A), IFNγ^+ CD8^+ T cells, and granzyme B^+ CD8^+ T cells (B) in total CD8^+ T cells were assessed using flow cytometry. […]

COC(=O)C1=CC[C@@]23CC[C@@H]([C@@](C)(/C=C/C=C(\C)C(=O)NNCCO)OC2=O)[C@@]3(OC(C)=O)CC1 [compound 12, Methyl(3R,4S,4aS,9aR)-4a-acetoxy-3-((1E,3E)-5-(2-(2-hydroxyethyl)hydrazineyl)-4-methyl-5-oxopenta-1,3-dien-1-yl)-3-methyl-1-oxo-3,4,4a,5,6,9-hexahydro-1H-4,9a-ethanocyclohepta[c]pyran-7-carboxylate]
IL-4/IL-13-induced increase in ARG1 and CD206 and decrease in NOS2 and MHC II expression [1]: significantly reversed these trends
ARG1 protein expression (Western blot) [2]: potent inhibitory activity at the protein level
inhibitory effects of IL-4/IL-13-induced BMDMs on CD8+ T cell proliferation and activation (Ki67+, IFNγ+, GRZB+ CD8+ T cells) [3]: dose-dependently reversed

— paper PMC12114375, “Discovery of Hydrazineyl Amide Derivative of Pseudolaric Acid B for Reprogramming Tumor-Associated Macrophages Against Tumor Growth” (Molecules, 2025)
